In patent US20160220569A1, “CDK4/6 Inhibitor Dosage Formulations For The Protection Of Hematopoietic Stem And Progenitor Cells During Chemotherapy” (G1 Therapeutics, Inc., priority 2015, published 2016):
Several values for one entry are separate records, joined by “and”; a condition that tells them apart may be missing. Identical values can stand only once.

What was measured:
[1] = Blood cell counts in mice after 5-Fluorouracil with or without Compound 1; format: in vivo; conditions: Compound 1 100 mg/kg before 5FU
Protocol: Blood cell counts for neutrophils, lymphocytes, red blood cells (RBCs), and platelets were conducted.

[2] = Hematology (ANC, lymphocytes, hemoglobin, platelets) during etoposide and carboplatin chemotherapy; format: in vivo, human; conditions: 200 mg/m^2 with etoposide and carboplatin
Text: As shown in FIG. 63A the absolute neutrophil count though affected by chemotherapy rarely dipped below the G1 phase. As shown in FIG. 63B the lymphocyte count though affected by chemotherapy rarely dipped below the G1 phase. As shown in FIG. 63C the hemoglobin concentration though affected by chemotherapy rarely dipped below the G1 phase. As shown in FIG. 63D the platelet count though affected by chemotherapy rarely dipped below the G1 phase.

[3] = Nonclinical IV and oral pharmacokinetics in dogs; format: in vivo; conditions: dog, plasma
Target lesions [4] = test: Tumor response, Compound 1 with topotecan; format: in vivo, human; conditions: for Cycle 2 Target Lesion Sum: individual subjects
Protocol: In Cohort 2 there were 3 subjects who received 1.25 mg/m^2 of topotecan once daily on Days 1 to 5. In Cohort 3 there were 4 subjects who received 0.75 mg/m^2 of topotecan once daily on Days 1 to 5. […] Target lesions were summed and response tabulated as follows: […]

[5] = 3-compartment model pharmacokinetic analysis, Cohorts 5 and 6; format: in vivo, human; conditions: for half-life: read-out: γ phase half-life averaged (converted)
Text: The concentration-time profile is represented by a tri-exponential equation similar to the following: […]
Where A, B, and C are the ‘macroconstants’ which are a function of the dose, volume of distribution and the ‘microconstants’ (K12, K21, K13, K31, and K10).
Five of these parameters are rate constants and the 6th is the volume of distribution of the central compartment (V1).

[6] = Nonclinical IV and oral pharmacokinetics in rats; format: in vivo; conditions: rat, plasma
Text: Systemic exposure in rats as measured by Cmax and AUClast was dose-dependent.

[7] = Repeat-dose toxicity in rats (IV 7 days, oral 14 days); format: in vivo
Protocol: The magnitude and/or duration of this effect differed among cell lineages but was dose-related in all lineages. Effects on hematopoiesis were readily monitored by peripheral blood cell counts and were reversible when dosing stopped.
In both species, the toxicity profile was similar and the repeat-dose toxicity studies identified no observed adverse effect levels (NOAELs). […] This IV NOAEL was the basis for selecting a starting dose of 6 mg/m^2 for the first clinical trial, which is 1/10th of the lowest safe dose level in any animal study.
In rats, the toxicity profile with oral administration was similar to that with IV administration, except that pulmonary macrophage accumulation occurred with oral administration for 14 days at ≧5 mg/kg (≧30 mg/m^2) but not with IV administration for 7 days at up to 25 mg/kg (≧150 mg/m^2). Based on this finding, the oral NOAEL was 2 mg/kg (≧12 mg/m^2).

Target lesions [8] = test: Tumor response, Compound 1 with etoposide and carboplatin; format: in vivo, human; set-up: Cycle 2 Target Lesion Sum / Cycle4 Target Lesion Sum / Cycle 6 Target Lesion Sum: unit not given here
Text: As shown in FIG. 64 all 6 patients had at least partial responses during the course of 2 to 6 cycles of chemotherapy. Target lesions were summed and response tabulated as follows: […]

[9] = Compound 1 200 mg/m^2 with topotecan, 2 to 4 cycles
[10] = Cohort 5, 96 mg/m^2, 3-compartment primary parameter, subjects 1-6, Mean, Median, mean
[11] = Compound 1 200 mg/m^2 followed by etoposide and carboplatin, individual subjects

CN1CCN(c2ccc(Nc3ncc4cc5n(c4n3)C3(CCCCC3)CNC5=O)nc2)CC1 [Compound 1, 2′-((5-(4-methylpiperazin-1-yl)pyridin-2-yl)amino)-7′,8′-dihydro-6′H-spiro[cyclohexane-1,9′-pyrazino[1′,2′:1,5]pyrrolo[2,3-d]pyrimidin]-6′-one]
loss of lymphocytes upon 5FU chemotherapy [1]: significantly less loss
loss of neutrophils upon 5FU chemotherapy [1]: significantly less loss
loss of platelets upon 5FU chemotherapy [1]: significantly less loss
loss of red blood cells upon 5FU chemotherapy [1]: significantly less loss
myelotoxicity (ANC, lymphocyte count, hemoglobin, platelet count) [2]: no clinically relevant myelotoxicity
half-life ([3]; both sexes, after IV administration): ~4 h
bioavailability ([3]; oral 10 mg/kg): 30.2%
bioavailability ([3]; oral 90 mg/kg): 17.1%
Cycle 2 Target Lesion Sum (Target lesions [4]; Compound 1 200 mg/m^2 followed by 1.25 mg/m^2 Topotecan): 22 and 123
Cycle 2 Target Lesion Sum (Target lesions [4]; Compound 1 200 mg/m^2 followed by .75 mg/m^2 Topotecan): 157
subjects with partial responses (Target lesions [4]; [9]): 3 subjects
subjects with stable disease (Target lesions [4]; [9]): 3 subjects
Beta [5, 10]: 0.388 h⁻¹
Gamma [5, 10]: 0.0502 h⁻¹
K31 [5, 10]: 0.0692 h⁻¹
Cmax ([5]; both sexes, human, plasma, intravenous, 96 mg/m2, Cohort 5, 96 mg/m^2, 3-compartment secondary (derived) parameter, six subjects, Mean, Median, read-out: Cmax): 991 ng/mL
half-life ([5]; both sexes, human, plasma, intravenous, 96 mg/m2, 96 mg/m^2, 3-compartment model, mean): 14.2 h
half-life ([5]; both, human, plasma, intravenous, […]2): 14 h
half-life ([6]; both sexes, rats, after IV administration): ~4 h
bioavailability ([6]; oral): 60 to 70%
dose with clinically significant leukopenia ([7]; 7 days): ≥ 150 mg/m^2
dose with pulmonary macrophage accumulation ([7]; oral administration for 14 days): ≥ 5 mg/kg
NOAEL at 7 days ([7]; rat, in vivo, IV, read-out: NOAEL for IV administration): 10 mg/kg
NOAEL at 14 days ([7]; rat, in vivo, oral): 2 mg/kg
Cycle 2 Target Lesion Sum (Target lesions [8]; [11]): 74 and 22 and 76 and 161 and 50 and 35
Cycle4 Target Lesion Sum (Target lesions [8]; [11]): 54 and 0 (2×) and 62 and 146
Cycle 6 Target Lesion Sum (Target lesions [8]; [11]): 47 and 0
patients with at least partial responses (Target lesions [8]; Compound 1 200 mg/m^2 with etoposide and carboplatin, 2 to 6 cycles, 6 patients): 6 patients
